{
  "source": "patent US6407081B1",
  "about": "“Method for inhibiting cytokine production by cells” (Previsan AG, priority 1997, dated 2002)",
  "key": {"[1]": {"test_system": "IL-5", "assay": "IL-5 production by PHA-activated PBMC, ELISA (Example 1)", "assay_type": "cell-based, human", "conditions": "for production of IL-5 inhibited, on average: average of five donors, PBMC; for IL-5 content as a percentage of the control: PHA-activated PBMC, 72 h", "protocol": "Peripheral mononuclear blood cells (PMBC) from five healthy human donors are isolated in the conventional manner from 50 ml of their blood and then purified by density gradient centrifugation (Lymphoprep). The cells (5.10^6 cells/ml) are activated by 0.3 μg/ml of phytohaemagglutinin (PHA) and cultured for 72 hours at 37° C. in the presence of various concentrations of ADA (20, 10, 5, 1, 0.2 and 0.04 μg/ml). The culture medium consists of RPMI 1640 complemented with 10% foetal calf serum and glutamine and contains mercaptoethanol. The ADA solutions are prepared in dimethyl sulfoxide (DMSO), the working concentration of DMSO during the experiments being 0.1%. Said experiments are performed on 96 well plates (200 μl/well) and, once the plates have been centrifuged at 1500 revolutions per minute for 10 minutes, the supernatants are harvested and the IL-5 content thereof analysed by an ELISA immunoenzymatic assay."}, "[2]": {"test_system": "IL-2", "assay": "IL-2 production by purified CD4 T lymphocytes stimulated by PMA + anti-CD28 (Example 4)", "assay_type": "cell-based, human", "conditions": "for IL-2 in % relative to control: purified CD4 T lymphocytes, PMA + anti-CD28, mean of 2 donors", "protocol": "Purified CD4 T lymphocytes (90% purity) stimulated by PMA (phorbol myristate acetate)+anti-CD28 antibodies from healthy donors are treated with various concentrations of ADA.\nIn Examples 3 and 4, the results are stated as a percentage taking the medium without ADA as 100%. The concentrations corresponding to 100% are respectively 90,000 pg/ml for IL-2, 1100 pg/ml for IL-5, 1900 pg/ml for IFN-γ and 2870 pg/ml for TNF-α. The results are the mean of independent ELISA assays."}, "[3]": {"test_system": "IFN-γ", "assay": "IFN-γ production by splenocytes of ovalbumin-sensitised rats treated orally (Example 8)", "assay_type": "in vivo, Brown-Norway rats", "conditions": "ADA orally 500 and 1000 mg/kg twice daily, FIG. 4", "protocol": "Brown-Norway rats are actively sensitised with 5% ovalbumin in 0.9% NaCl. 24 hours later, bronchial reactivity to metacholine is measured on the anaesthetised rats. Immediately measurement of bronchial reactivity is complete, splenocytes are taken from these rats and cultured to determine IFN-γ production by these cells.\nADA is administered 24 hours before the beginning of the ovalbumin sensitisation phase and daily throughout the duration of the test, except for the days of the measurements. The ADA is administered orally in suspension in 1% methylcellulose at a twice daily dosage of 500 mg/kg and 1000 mg/kg bodyweight.\nThe quantities of IFN-γ are plotted on the y-axis in pg/mg of protein. On the x-axis, the empty bars A to F correspond to the following experiments: […]"}, "[4]": {"test_system": "Peripheral mononuclear blood cells (PMBC)", "assay": "Cytotoxic effects on the PBMC cultures of Examples 1 and 2", "assay_type": "cell-based, human", "conditions": "at the ADA concentrations reducing cytokine production in Examples 1 and 2"}},
  "data": [
    {"smiles": "NC(=O)N=NC(N)=O", "note": "[ADA, azodicarbon-amide]", "values": [
      {"measurement": "production of IL-5 inhibited, on average", "setting": "[1]; 0.2 μg/ml of ADA", "value": 45, "unit": "%"},
      {"measurement": "production of IL-5 inhibited, on average", "setting": "[1]; 10 μg/ml of ADA", "value": 80, "unit": "%"},
      {"measurement": "production of IL-5 inhibited, on average", "setting": "[1]; 20 μg/ml of ADA", "value": 90, "unit": "%"},
      {"measurement": "IL-5 content as a percentage of the control", "setting": "[1]; ADA 0.04 μg/ml, Donor 1", "value": "83 % of control"},
      {"measurement": "IL-5 content as a percentage of the control", "setting": "[1]; ADA 0.04 μg/ml, Donor 2", "value": "50 % of control"},
      {"measurement": "IL-5 content as a percentage of the control", "setting": "[1]; ADA 0.04 μg/ml, Donor 3", "value": "58 % of control"},
      {"measurement": "IL-5 content as a percentage of the control", "setting": "[1]; ADA 0.04 μg/ml, Donor 4", "value": "46 % of control"},
      {"measurement": "IL-5 content as a percentage of the control", "setting": "[1]; ADA 0.04 μg/ml, Donor 5", "value": "55 % of control"},
      {"measurement": "IL-5 content as a percentage of the control", "setting": "[1]; ADA 0.04 μg/ml, Mean of donors", "value": "58 % of control"},
      {"measurement": "IL-5 content as a percentage of the control", "setting": "[1]; ADA 0.2 μg/ml, Donor 1", "value": "54 % of control"},
      {"measurement": "IL-5 content as a percentage of the control", "setting": "[1]; ADA 0.2 μg/ml, Donor 2", "value": "42 % of control"},
      {"measurement": "IL-5 content as a percentage of the control", "setting": "[1]; ADA 0.2 μg/ml, Donor 3", "value": "63 % of control"},
      {"measurement": "IL-5 content as a percentage of the control", "setting": "[1]; ADA 0.2 μg/ml, Donor 4", "value": "57 % of control"},
      {"measurement": "IL-5 content as a percentage of the control", "setting": "[1]; ADA 0.2 μg/ml, Donor 5", "value": "58 % of control"},
      {"measurement": "IL-5 content as a percentage of the control", "setting": "[1]; ADA 0.2 μg/ml, Mean of donors", "value": "55 % of control"},
      {"measurement": "IL-5 content as a percentage of the control", "setting": "[1]; ADA 1 μg/ml, Donor 1", "value": "48 % of control"},
      {"measurement": "IL-5 content as a percentage of the control", "setting": "[1]; ADA 1 μg/ml, Donor 2", "value": "29 % of control"},
      {"measurement": "IL-5 content as a percentage of the control", "setting": "[1]; ADA 1 μg/ml, Donor 3", "value": "57 % of control"},
      {"measurement": "IL-5 content as a percentage of the control", "setting": "[1]; ADA 1 μg/ml, Donor 4", "value": "37 % of control"},
      {"measurement": "IL-5 content as a percentage of the control", "setting": "[1]; ADA 1 μg/ml, Donor 5", "value": "49 % of control"},
      {"measurement": "IL-5 content as a percentage of the control", "setting": "[1]; ADA 1 μg/ml, Mean of donors", "value": "44 % of control"},
      {"measurement": "IL-5 content as a percentage of the control", "setting": "[1]; ADA 5 μg/ml, Donor 1", "value": "44 % of control"},
      {"measurement": "IL-5 content as a percentage of the control", "setting": "[1]; ADA 5 μg/ml, Donor 2", "value": "2 % of control"},
      {"measurement": "IL-5 content as a percentage of the control", "setting": "[1]; ADA 5 μg/ml, Donor 3", "value": "23 % of control"},
      {"measurement": "IL-5 content as a percentage of the control", "setting": "[1]; ADA 5 μg/ml, Donor 4", "value": "31 % of control"},
      {"measurement": "IL-5 content as a percentage of the control", "setting": "[1]; ADA 5 μg/ml, Donor 5", "value": "34 % of control"},
      {"measurement": "IL-5 content as a percentage of the control", "setting": "[1]; ADA 5 μg/ml, Mean of donors", "value": "27 % of control"},
      {"measurement": "IL-5 content as a percentage of the control", "setting": "[1]; ADA 10 μg/ml, Donor 1", "value": "29 % of control"},
      {"measurement": "IL-5 content as a percentage of the control", "setting": "[1]; ADA 10 μg/ml, Donor 2", "value": "2 % of control"},
      {"measurement": "IL-5 content as a percentage of the control", "setting": "[1]; ADA 10 μg/ml, Donor 3", "value": "28 % of control"},
      {"measurement": "IL-5 content as a percentage of the control", "setting": "[1]; ADA 10 μg/ml, Donor 4", "value": "14 % of control"},
      {"measurement": "IL-5 content as a percentage of the control", "setting": "[1]; ADA 10 μg/ml, Donor 5", "value": "31 % of control"},
      {"measurement": "IL-5 content as a percentage of the control", "setting": "[1]; ADA 10 μg/ml, Mean of donors", "value": "21 % of control"},
      {"measurement": "IL-5 content as a percentage of the control", "setting": "[1]; ADA 20 μg/ml, Donor 1", "value": "9 % of control"},
      {"measurement": "IL-5 content as a percentage of the control", "setting": "[1]; ADA 20 μg/ml, Donor 2", "value": "2 % of control"},
      {"measurement": "IL-5 content as a percentage of the control", "setting": "[1]; ADA 20 μg/ml, Donor 3", "value": "26 % of control"},
      {"measurement": "IL-5 content as a percentage of the control", "setting": "[1]; ADA 20 μg/ml, Donor 4", "value": "5 % of control"},
      {"measurement": "IL-5 content as a percentage of the control", "setting": "[1]; ADA 20 μg/ml, Donor 5", "value": "7 % of control"},
      {"measurement": "IL-5 content as a percentage of the control", "setting": "[1]; ADA 20 μg/ml, Mean of donors", "value": "10 % of control"},
      {"measurement": "IL-5 production, comparable tests in the absence of mercaptoethanol", "setting": "[1]; culture medium without mercaptoethanol, compared with Table 1", "value": "relatively similar results"},
      {"measurement": "IL-2 in % relative to control", "setting": "[2]; ADA 1 μg/ml", "value": "82 % relative to control"},
      {"measurement": "IL-2 in % relative to control", "setting": "[2]; ADA 5 μg/ml", "value": "30 % relative to control"},
      {"measurement": "IL-2 in % relative to control", "setting": "[2]; ADA 10 μg/ml", "value": "18 % relative to control"},
      {"measurement": "IL-2 in % relative to control", "setting": "[2]; ADA 20 μg/ml", "value": "10 % relative to control"},
      {"measurement": "secretion of IL-2 by lymphocytes", "setting": "[2]; concentrations lower than 20 μg/ml of ADA, Examples 3 and 4", "value": "Even lower concentrations inhibit"},
      {"measurement": "production of INF-γ by splenocytes", "setting": "[3]", "value": "inhibitory effect"},
      {"measurement": "cytotoxic effects", "setting": "[4]", "value": "no cytotoxic effects"}
    ]}
  ]
}
